US20110207759A1, “METHOD FOR TREATMENT OF ATHEROSCLEROTIC DISEASE” (priority 2010, published 2011)

Tests used:
[1] = test system: statin-treated patients with atherosclerotic coronary or vascular disease or coronary risk equivalent; test: Carotid B-mode ultrasound: change in carotid intima-media thickness (CIMT), ARBITER 6-HALTS trial; assay type: in vivo, human; details: for Change in CIMT - Mean CIMT / Change in CIMT - Max CIMT / Change in mean CIMT / Change from baseline CIMT, maximal thickness / Change from baseline CIMT, mean thickness: mean ± SE; for Change in mean CIMT: LOCF; for Change from baseline CIMT, maximal thickness / Change from baseline CIMT, mean thickness: last observation carried forward, all subjects (ezetimibe n=161, niacin n=154)
Text: (§1) Endpoints: The predefined primary endpoint was the between-group difference in the change in mean CIMT after 14 months. Secondary endpoints included the change in lipid values, a composite endpoint consisting of major adverse cardiovascular events (coronary heart disease death, myocardial infarction, myocardial revascularization, admission to the hospital for an acute coronary syndrome), drug discontinuation due to adverse effects, and health-related quality of life (Schweikert et al., 2008). Clinical cardiovascular endpoints were adjudicated by consensus of two members of the data advisory committee blinded to treatment assignment.
Carotid B-mode Ultrasound: Carotid ultrasonography was performed using a Sonosite Micromax ultrasound system (Bothell, Wash.) equipped with a broadband linear array probe (13 MHz). Participants underwent 3 ultrasound examinations during the study at baseline, 8 and 14 months. Except for the initial 20 baseline examinations performed at the Washington Adventist site, a single sonographer performed all ultrasound examinations. Images were obtained of the far wall of the distal 1 centimeter of the right and left common carotid arteries in the anterior and lateral views. A total of eight images (2 complete sets of 4 separate images) were obtained with standardized ultrasound settings. Baseline CIMT images were used to localize the site of imaging in serial images. Digitized still images from an electrocardiographically-defined diastolic frame were quantitated off-line. A single observer unaware of treatment assignment and patient identification performed measurements of mean and maximal CIMT. Focal atherosclerotic plaque was excluded from the site of CIMT measurement. All measurements were performed in duplicate using an automated border detection algorithm. […] Reader drift was evaluated using a standard image set (10 CIMT images from different patients) which the sonographer serially quantified every 6 months.
Statistical analysis: The primary endpoint was the change in mean CIMT from baseline to 14 months between the niacin and ezetimibe treatment groups. […] Clinical and carotid imaging data were held in separate databases for the duration of the trial. Between-group data for continuous variables were assessed with a t-test for independent variables or a Mann-Whitney U test as appropriate. A chi-square test was used for categorical variables. Kaplan-Meier survival analysis was performed using the log rank test. All statistical analyses were performed using SPSS software (version 16, SPSS Inc., Chicago, Ill.). Values are reported as mean±standard deviation or standard error, and median (inter-quartile range) for non-normal distributions. A 2-sided P value of 0.05 was considered statistically significant.
Study design: The study design prespecified the performance of a blinded, interim analysis according to the conservative method of O'Brien and Fleming with an alpha spending function (O'Brien et al. 1979). This was conducted after 180 subjects (60% of the planned sample size) completed the study. An independent data advisory committee evaluated the endpoint data without knowledge of treatment assignment. No formal, a priori stopping boundaries were set for the trial.

[2] = test system: statin-treated patients with atherosclerotic coronary or vascular disease or coronary risk equivalent; test: Major adverse cardiovascular events (composite clinical endpoint); assay type: in vivo, human; details: 14-month study
Text: as §1

[3] = test system: statin-treated patients with atherosclerotic coronary or vascular disease or coronary risk equivalent
Text: as §1

[4] = test system: statin-treated patients with atherosclerotic coronary or vascular disease or coronary risk equivalent; test: Fasting plasma lipids, glucose and C-reactive protein during treatment; details: for C-reactive protein / Triglycerides: median (inter-quartile range);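 as to all read-outs here: plasma drawn after an overnight fast, LDL-C determined by direct assay and C-reactive protein by high-sensitivity immunoturbidimetry with monoclonal anti-CRP antibodies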
Procedure: Study population: This prospective, randomized, parallel group, open-label, blinded endpoint study was conducted at two centers, Walter Reed Army Medical Center, a university-affiliated, suburban, tertiary care military medical center, and the Washington Adventist Hospital, a private tertiary care hospital located in Takoma Park, Md. The institutional review boards of each facility approved the study, and all volunteers provided written, informed consent. Included subjects were men and women ≧30 years old with either known atherosclerotic coronary or vascular disease (N=279) or a coronary risk equivalent diagnosis including diabetes mellitus (N=38), a 10-year coronary heart disease Framingham risk score ≧20% (N=26), or a coronary calcium score above 200 or 400 (N=20) for women and men respectively.
Randomization: Three hundred sixty-three patients were enrolled in the trial. […] Randomization was performed using a computer-generated sequence of random numbers. There were no protocol-directed changes in statin medications during the study.
Cardiovascular risk variables: Following an overnight fast, laboratory measurements included plasma total cholesterol, LDL-C, HDL-C, triglycerides, C-reactive protein, liver-associated enzymes and glucose at baseline, 2, 8 and 14 months. LDL-C was measured using a direct assay. C-reactive protein was measured with a high-sensitivity, commercially available immunoturbidimetric assay, which uses monoclonal antibodies to CRP (Roche Cobas® Integra, Switzerland).

[5] = 14 months from baseline, completing subjects (ezetimibe n=111, niacin n=97), added to statin
[6] = 2 Months, 208 completers, added to statin, mean ± SD
[7] = 8 Months, 208 completers, added to statin, mean ± SD
[8] = 14 Months, 208 completers, added to statin, mean ± SD
[9] = baseline to 14 months, 208 completers, added to statin
[10] = study completion, n=315, mean ± SD
[11] = study completion, n=315, median (interquartile range)

`O=C(O)c1cccnc1` [Niacin, niacin] was tested. Which “Change in CIMT” value ([1]; 8 and 14 months, 208 completers, added to statin) did it give?
The value was “significant reduction in mean and maximal CIMT (regression)”.

What about the “Change in CIMT - Mean CIMT” value ([1]; 8 months from baseline, 208 completers (ezetimibe N=111, niacin N=97), added to statin) of the same molecule?
The value was −0.0102 ± 0.0030 mm.

What about the “Change in CIMT - Max CIMT” value ([1]; 8 months from baseline, 208 completers, added to statin) of the same molecule?
The value was −0.0128 ± 0.0043 mm.

And the “Change in CIMT - Max CIMT” value [1, 5]?
The value was −0.0181 ± 0.0050 mm.

What about the “Change in CIMT - Mean CIMT” value [1, 5] of the same molecule?
Its value is −0.0142 ± 0.0041 mm.

What about the “Change in CIMT - Mean CIMT” value ([1]; 14 months from baseline, completing subjects (ezetimibe n=111, niacin n=97), added to statin, listed as ERN) of the same molecule?
Its value is −0.0142±0.0041 mm.

What about the “Change in mean CIMT” value ([1]; Quartile 1 (lowest) of cumulative drug exposure (adherence × dose × treatment duration)) of the same molecule?
Its value is −0.0052 ± 0.0041 mm.

And the “Change in mean CIMT” value ([1]; Quartile 2 of cumulative drug exposure)?
Its value is −0.0073 ± 0.0027 mm.

What about the “Change in mean CIMT” value ([1]; Quartile 3 of cumulative drug exposure) of the same molecule?
Its value is −0.0148 ± 0.0060 mm.

What about the “Change in mean CIMT” value ([1]; Quartile 4 (highest) of cumulative drug exposure, 14 months) of the same molecule?
The value was −0.0128 ± 0.0078 mm.

What about the “Change in mean CIMT” value ([1]; Quartile 4 (highest) of cumulative drug exposure, 14 months, listed as ERN) of the same molecule?
Its value is −0.0128±0.0078 mm.

What about the “Effect of increased cumulative drug exposure on CIMT” value ([1]; exploratory analysis, quartiles of adherence × dose × duration) of the same molecule?
The value was “regression of CIMT”.

What about the “Change from baseline CIMT, maximal thickness” value [1] of the same molecule?
Its value is −0.0124 ± 0.0036 mm.

And the “Change from baseline CIMT, mean thickness” value [1]?
The value was −0.0102 ± 0.0026 mm.

And the “Change from baseline CIMT, maximal thickness” value ([1]; listed as niacin)?
Its value is −0.0124±0.0036 mm.

And the “Change from baseline CIMT, mean thickness” value ([1]; listed as niacin)?
The value was −0.0102±0.0026 mm.

And the “Incidence of major adverse cardiovascular events” value [2]?
The value was 1.3%.

What about the “Cardiovascular death (number of events)” value ([2]; ezetimibe N=165, niacin N=160) of the same molecule?
Its value is 1.

And the “Coronary revascularization procedure (number of events)” value ([2]; ezetimibe N=165, niacin N=160)?
Its value is 0.

And the “Myocardial infarction (number of events)” value ([2]; ezetimibe N=165, niacin N=160)?
Its value is 1.

And the “Subjects experiencing a composite clinical cardiovascular endpoint (major adverse cardiovascular events)” value ([2]; ezetimibe N=165, niacin N=160)?
The value was 2 subjects.

What about the Cutaneous flushing reported ([3]; both, human, in vivo, 14 months) of the same molecule?
Its Cutaneous flushing reported is 36.1%.

What about the “Subjects who did not complete the study” value ([3]; in vivo) of the same molecule?
Its value is 28.

And the “Subjects who did not complete the study (percent)” value ([3]; in vivo)?
Its value is 14.9%.

And the Withdrawals ([3]; in vivo)?
The Withdrawals was 27.

What about the “Withdrawals with adverse drug effects cited as the reason” value ([3]; of 9 ezetimibe / of 27 niacin withdrawals) of the same molecule?
The value was 17.

What about the Deaths ([3]; of 176 ezetimibe / of 187 niacin enrolled) of the same molecule?
Its Deaths is 1.

What about the HDL-C [4, 6] of the same molecule?
Its HDL-C is 48.9 ± 10.6 mg/dL.

And the LDL-C [4, 6]?
Its LDL-C is 66.2 ± 18.1 mg/dL.

What about the C-reactive protein ([4]; 2 Months, 208 completers) of the same molecule?
Its C-reactive protein is 1.1 (0.6-3.1) mg/L.

And the Triglycerides ([4]; 2 Months, 208 completers)?
Its Triglycerides is 88 (69-125) mg/dL.

And the “Total Cholesterol” value ([4]; 2 Months, 208 subjects who completed 14 month study, added to statin, mean ± SD)?
Its value is 131.0 ± 22.9 mg/dL.

What about the HDL-C [4, 7] of the same molecule?
The HDL-C was 50.7 ± 11.6 mg/dL.

And the LDL-C [4, 7]?
Its LDL-C is 67.1 ± 19.5 mg/dL.

And the “Total Cholesterol” value [4, 7]?
Its value is 133.6 ± 25.5 mg/dL.

What about the C-reactive protein ([4]; 8 Months, 208 completers) of the same molecule?
Its C-reactive protein is 1.1 (0.5-2.4) mg/L.

And the Triglycerides ([4]; 8 Months, 208 completers)?
The Triglycerides was 88 (66-123) mg/dL.

What about the HDL-C [4, 8] of the same molecule?
Its HDL-C is 49.9 ± 12.2 mg/dL.

What about the LDL-C [4, 8] of the same molecule?
Its LDL-C is 70.5 ± 23.9 mg/dL.

What about the “Total Cholesterol” value [4, 8] of the same molecule?
Its value is 136.7 ± 29.3 mg/dL.

And the C-reactive protein ([4]; 14 Months, 208 completers)?
The C-reactive protein was 1.0 (0.4-2.9) mg/L.

What about the Triglycerides ([4]; 14 Months, 208 completers) of the same molecule?
Its Triglycerides is 90 (69-138) mg/dL.

And the “Change from baseline in LDL-C and triglycerides” value ([4]; 315 patients, baseline to final)?
The value was “Significant reductions”.

And the “Final change in HDL-C” value [4, 9]?
The value was “+7.5±9.2 mg/dL”.

What about the “Final change in LDL-C” value [4, 9] of the same molecule?
Its value is -10.0 ± 24.5 mg/dL.

What about the “Total cholesterol, final values” ([4]; study completion, n=315 (ezetimibe 161, niacin 154), last observation carried forward, mean ± SD) of the same molecule?
Its value is 137.6 ± 30.5 mg/dL.

And the “HDL-C, final values” [4, 10]?
The value was 49.7 ± 11.5 mg/dL.

What about the “LDL-C, final values” [4, 10] of the same molecule?
Its value is 72.7 ± 25.9 mg/dL.

What about the “Triglycerides, final values” [4, 11] of the same molecule?
Its value is 91 (69-134) mg/dl.

And the “hsCRP, final values” [4, 11]?
The value was 1.0 (0.4-2.3) mg/l.
